Test results: patent US10786505B2, “Administration of NEDD8-activating enzyme inhibitor and chemotherapeutic agents” (Millennium Pharmaceuticals, Inc., priority 2013, dated 2020)

How the values were obtained:
[1] = test system: NCI-H526; assay: In vitro cell viability combination assay (CellTiter-Glo); settings: agent combined with MLN4924, vehicle DMSO, 96 hr
Experimental: (§7) General Method: Cells are grown in their respective growth media, supplemented with 10% fetal bovine serum unless otherwise noted. […] A portion of each plate is used for positive controls (no agent is added), while another portion of each plate is used for negative controls (no cells are added). Viability is assessed with CellTiter-Glo® Cell Viability reagent used according to manufacturer's instructions (Promega). Luminescence is measured using a LEADseeker imaging system (GE Healthcare).
(§8) The viability data is normalized separately for each plate by scaling the data so that the median of the negative controls is 0 and the median of the positive controls is 100. More formally,
(§9) [formula] where Vi is the normalized viability of the i^th well, Ui is the raw viability measurement, median (U) is the median of the negative controls, and median (U+) is the median of the positive controls. After normalization, the controls are discarded.
(§10) where E1, E2, E3, E4, I1, I2, I3, S1, S2, S3, and S4 are parameters, CA and CB are the respective concentrations of agents A and B, and V is the normalized viability measurement. It is assumed that the error values are independent and identically distributed normal random variables.
(§11) The Combination Index is computed based on an isobologram, which is a slice of the dose response surface with constant viability. For the present analysis, the 50% isobologram, which is the dose contour that has 50% viability, is used. […] Since the choice of (DA, DB) can be arbitrary, the constraint DA/DB=EC50A/EC50B is used.
(§12) In such cases, Nonlinear Blending can be used as an alternative measure of synergy or additivity. Nonlinear Blending is found by considering a slice of the dose response surface that intersects both concentration axes and runs parallel to the viability axis. Let VA and VB be the viability where the slice intersects the drug A and B axes, respectively. Let Vmax and Vmin be the maximum and minimum viabilities along the slice. Let NLBS=min(VA,VB)−Vmin NLBA=Vmax−max(VA,VB) Define the Nonlinear Blending value to be NLBS if NLBS>NLBA and −NLBA otherwise.
(§13) After completing the analysis of individual plates, the results are combined across the replicates. For a given measure and a set of replicates, the overall mean and standard error are computed using weighted averaging. A null mean, which corresponded to an additive effect, is then compared with the overall mean. The null mean is 1 for the Combination Index and 0 for Nonlinear Blending. Next, a two sized Z-test is performed based on the estimated mean and standard error. This produces a p-value for each measure and each cell line.
(§14) After computing the mean, standard error, and p-value for each set of replicates, these values require interpretation. Thus, a standard procedure is used to produce a classification (synergy, additivity, subadditivity, antagonism, or inconclusive) in each case. If the Combination Index exists for more than half of the replicates, then these measures are used to make the classification.
(§15) Consider the case where the Combination Index is used to make the classification. If the p-value is greater than 0.05, the estimate for the Combination Index is not statistically different from 1. However, if the standard error is also very large, then the estimate is too uncertain to be informative. […] Otherwise, the classification is “Additivity”. When the p-value is less than 0.05, the estimate for the Combination Index is statistically different from 1. However, if the mean is still close to 1, then the difference is not of practical significance. Thus, the result is classified based on the mean. A mean in the range (0.8, 1.2) is considered close enough to 1 to be classified as Additivity. A mean in the range (0, 0.8) is considered low enough to be classified as Synergy. […] The threshold value of 2 can be derived from the definition of the Combination Index.

[2] = test system: LXFE409 xenograft model; assay: Combination of docetaxel or carboplatin and MLN4924 in LXFE409 xenograft model; format: in vivo, mice; settings: LXFE409 xenograft; 50 mg/kg carboplatin QW IP
Experimental: LXFE409 squamous non small cell lung cancer tumor fragments are implanted into the subcutaneous space in the flank of female NMRI nu/nu mice (5-7 weeks, Janvier Labs, Saint Berthevin, France).
(§1) Docetaxel (Henry Schein, Inc., Pittsburgh Pa., Qilu Pharmaceutical Co., Ltd., Jinan, Shandong, China, and Sanofi-Aventis) is formulated in 0.9% saline and administered by intravenous injection (IV) once weekly (QW) at 5 mg/kg or 10 mg/kg.
(§2) Carboplatin (CARBOplatin Injection, Hospira, Inc., Qilu Pharmaceutical Co., Ltd. Jinan, Shandong, China, and Teva Gry-Pharma GmbH, Ulm, Germany) is formulated in 0.9% saline and administered by IP injection once weekly (QW) at 50 mg/kg. The once weekly schedule is also described as every 7 days (Q7D).
(§3) Tumors are measured twice weekly using a vernier caliper. Tumor volumes are calculated using standard procedures (0.5×(length×width^2)). […] Tumor size and body weight are measured approximately twice a week for the duration of the study. Mice are euthanized when their tumor volume reached 10% of their body weight, or when the average tumor volume of a treatment or control group reached approximately 2000 mm^3. Tumor growth continued to be monitored after the dosing period in some studies. Average tumor volume is reported as a function of time for selected groups of selected studies in Figures A, B, and C.
(§4) Measurements from day 0 to 18, 21 or 22 are analyzed as specified in Tables 4-9. All tumor volumes have a value of 1 added to them before log10 transformation. For each animal, the log tumor volume at day 0 is subtracted from the log tumor volume on the subsequent days. This difference vs. time is used to calculate an area under the curve (AUC) for each animal using the trapezoid rule. […] The synergy score for the combination of agents A and B is defined as 100*(mean(AUCAB)−mean(AUCA)−mean(AUCB)+mean(AUCctl))/mean(AUCctl): where AUCAB, AUCA, AUCB, and AUCctl are the AUC values for animals in the combination group, the A group, the B group, and the control group, respectively. The standard error of the synergy score is computed based on the variation in the AUC values among the animals. […] If the P-value is above 0.05, then the combination is considered to be additive. If the P-value is below 0.05, and the synergy score is less than zero, then the combination is considered to be synergistic. […] Otherwise, the combination is classified as antagonistic.

[3] = test system: NCI-H510; assay: In vitro cell viability combination assay (CellTiter-Glo); settings: agent combined with MLN4924, vehicle DMSO, 96 hr
Experimental: as §7, §8, §9, §10, §11, §12, §13, §14, §15

[4] = test system: HCT116; assay: as above; settings: agent combined with MLN4924, vehicle PBS, 48 hr
Experimental: as §7, §8, §9, §10, §11, §12, §13, §14, §15

[5] = test system: LU1143 xenograft model; assay: Combination of docetaxel or carboplatin and MLN4924 in LU1143 xenograft model; format: in vivo, mice; settings: 50 mg/kg carboplatin QW IP
Experimental: as §1, §2, §3
Measurements from day 0 to 18, 21 or 22 are analyzed as specified in Tables 4-9. All tumor volumes have a value of 1 added to them before log10 transformation. For each animal, the log tumor volume at day 0 is subtracted from the log tumor volume on the subsequent days. This difference vs. time is used to calculate an area under the curve (AUC) for each animal using the trapezoid rule. […] The synergy score for the combination of agents A and B is defined as 100*(mean(AUCAB)−mean(AUCA)−mean(AUCB)+mean(AUCctl))/mean(AUCctl): where AUCAB, AUCA, AUCB, and AUCctl are the AUC values for animals in the combination group, the A group, the B group, and the control group, respectively. The standard error of the synergy score is computed based on the variation in the AUC values among the animals. […] If the P-value is above 0.05, then the combination is considered to be additive. […]

[6] = test system: SW1573; assay: In vitro cell viability combination assay (CellTiter-Glo); format: cell-based; settings: agent combined with MLN4924, vehicle PBS, 72 hr
From the text: (§5) After normalization, the controls are discarded.
(§6) Otherwise, the classification is “Additivity”.

[7] = test system: NCI-H69; assay: as above; format: cell-based; settings: agent combined with MLN4924, vehicle DMSO, 96 hr
From the text: as §5, §6

[8] = test system: LK-2; assay: as above; format: cell-based; settings: agent combined with MLN4924, vehicle PBS, 72 hr
From the text: as §5, §6

[9] = test system: LUDLU-1; assay: as above; format: cell-based; settings: agent combined with MLN4924, vehicle PBS, 72 hr
From the text: as §5, §6

[10] = test system: NCI-H596; assay: as above; format: cell-based; settings: agent combined with MLN4924, vehicle PBS, 72 hr
From the text: as §5, §6

[11] = test system: NCI-H1299; assay: as above; format: cell-based; settings: agent combined with MLN4924, vehicle PBS, 72 hr
From the text: as §5, §6

[12] = test system: SW900; assay: as above; format: cell-based; settings: agent combined with MLN4924, vehicle PBS, 72 hr
From the text: as §5, §6

[13] = test system: CALU-1; assay: as above; format: cell-based; settings: agent combined with MLN4924, vehicle PBS, 72 hr
From the text: as §5, §6

[14] = test system: NCI-H1703; assay: as above; format: cell-based; settings: agent combined with MLN4924, vehicle PBS, 72 hr
From the text: as §5, §6

[15] = test system: RERF-LC-SQ1; assay: as above; format: cell-based; settings: agent combined with MLN4924, vehicle PBS, 72 hr
From the text: as §5, §6

[16] = test system: HARA; assay: as above; format: cell-based; settings: agent combined with MLN4924, vehicle PBS, 72 hr
From the text: as §5, §6

[17] = test system: VMRC-LCP; assay: as above; format: cell-based; settings: agent combined with MLN4924, vehicle PBS, 72 hr
From the text: as §5, §6

[18] = test system: CHAGO-K-1; assay: as above; format: cell-based; settings: agent combined with MLN4924, vehicle PBS, 72 hr
From the text: as §5, §6

[19] = test system: LC-1-SQ; assay: as above; format: cell-based; settings: agent combined with MLN4924, vehicle PBS, 72 hr
From the text: as §5, §6

[20] = test system: NCI-H520; assay: as above; format: cell-based; settings: agent combined with MLN4924, vehicle PBS, 72 hr
From the text: as §5, §6

[21] = test system: SK-MES-1; assay: as above; format: cell-based; settings: agent combined with MLN4924, vehicle PBS, 72 hr
From the text: as §5, §6

[22] = test system: KNS-62; assay: as above; format: cell-based; settings: agent combined with MLN4924, vehicle PBS, 72 hr
From the text: as §5, §6

[23] = test system: EBC-1; assay: as above; format: cell-based; settings: agent combined with MLN4924, vehicle PBS, 72 hr
From the text: as §5, §6

[24] = test system: NCI-H2170; assay: as above; format: cell-based; settings: agent combined with MLN4924, vehicle PBS, 72 hr
From the text: as §5, §6

[25] = test system: NCI-H82; assay: as above; settings: agent combined with MLN4924, vehicle DMSO, 96 hr
Experimental: as §7, §8, §9, §10, §11, §12, §13, §14, §15

[26] = test system: A549; assay: as above; settings: agent combined with MLN4924, vehicle PBS, 72 hr
Experimental: as §7, §8, §9, §10, §11, §12, §13, §14, §15

[27] = test system: NCI-H209; assay: as above; settings: agent combined with MLN4924, vehicle DMSO, 96 hr
Experimental: as §7, §8, §9, §10, §11, §12, §13, §14, §15

[28] = test system: NCI-H69 xenograft model; assay: Combination of carboplatin and MLN4924 in NCI-H69 xenograft model; format: in vivo, mice
Experimental: NCI-H69 or NCI-H82 small cell lung tumor fragments (30- to 40-mg) are implanted into the subcutaneous space in the area of the right flank of NCr nu/nu mice (7-10 weeks, Charles River Laboratories, Inc, Frederick Md. or Wilmington, Mass.) using a 12-gauge trocar.
as §2, §3, §4

## N.N.O=C([O-])C1(C(=O)[O-])CCC1.[Pt+2] [carboplatin]
[1]
  Combination Index: 1.02 ± 0.1
  Nonlinear Blending: 0 ± 2
[2]
  average tumor volume day 21: 204.4 mm^3
[3]
  Combination Index: 0.81 ± 0.08
  Nonlinear Blending: 5 ± 2
[4]
  Combination Index: 0.71 ± 0.03
  Nonlinear Blending: 19 ± 2
[5]
  average tumor volume day 21: 658.7 mm^3
[6]
  Nonlinear Blending: 6 ± 5
[7]
  Combination Index: 1.18 ± 0.09
  Nonlinear Blending: −5 ± 1
[8]
  Combination Index: 0.66 ± 0.05
  Nonlinear Blending: 15 ± 2
[9]
  Combination Index: 0.84 ± 0.2
  Nonlinear Blending: 5 ± 5
[10]
  Combination Index: 0.59 ± 0.1
  Nonlinear Blending: 10 ± 7
[11]
  Combination Index: 1.10 ± 0.05
  Nonlinear Blending: −8 ± 2
[12]
  Combination Index: 0.85 ± 0.06
  Nonlinear Blending: 10 ± 1
[13]
  Combination Index: 0.78 ± 0.05
  Nonlinear Blending: 11 ± 6
[14]
  Combination Index: 1.31 ± 0.02
  Nonlinear Blending: −23 ± 2
[15]
  Combination Index: 0.77 ± 0.06
  Nonlinear Blending: 11 ± 1
[16]
  Combination Index: 1.06 ± 0.1
  Nonlinear Blending: −3 ± 10
[17]
  Combination Index: 1.00 ± 0.04
  Nonlinear Blending: −3 ± 1
[18]
  Combination Index: 0.88 ± 0.03
  Nonlinear Blending: 11 ± 1
[19]
  Combination Index: 0.51 ± 0.04
  Nonlinear Blending: 28 ± 2
[20]
  Nonlinear Blending: 9 ± 20
[21]
  Combination Index: 1.32 ± 0.06
  Nonlinear Blending: −22 ± 4
[22]
  Combination Index: 0.82 ± 0.1
  Nonlinear Blending: 10 ± 5
[23]
  Combination Index: 1.24 ± 0.06
  Nonlinear Blending: −7 ± 1
[24]
  Combination Index: 1.38 ± 0.1
  Nonlinear Blending: −19 ± 7
[25]
  Combination Index: 0.65 ± 0.1
  Nonlinear Blending: 12 ± 2
[26]
  Combination Index: 0.72 ± 0.05
  Nonlinear Blending: 8 ± 4
[27]
  Combination Index: 1.00 ± 0.06
  Nonlinear Blending: −1 ± 1
[28]; 50 mg/kg carboplatin QW IP
  average tumor volume day 21: 501.3 mm^3
[28]; FIG. 3, MLN4924 SC 120 mg/kg BID Q3Dx2/week, carboplatin 50 mg/kg IP QW, single agents or their combination
  tumor growth during the treatment period (in words): inhibited tumor growth compared to the control vehicle group
